Experimental data: patent US20220362264A1, “ABIRATERONE-CYCLIC OLIGOMER PHARMACEUTICAL FORMULATIONS AND METHODS OF FORMATION AND ADMINISTRATION THEREOF” (DISPERSOL TECHNOLOGIES, LLC., priority 2019, published 2022)

What was measured:
[1] = system: prostate specific antigen (PSA); conditions: 1,000 mg daily, well controlled trials; cited from earlier work
[2] = system: 22RV1 human prostate tumor xenograft; experiment: Anti-tumor activity in 22RV1 human prostate tumor xenograft model; assay type: in vivo, CB.17 SCID mice; conditions: low and high doses, once-daily oral gavage
Method: The objective of the xenograft mice study was to determine the anti-tumor activity of a composition made per Example 2.4 as a single agent versus abiraterone acetate in the 22RV1 human prostate tumor xenograft model. The study was conducted in CB.17 SCID mice injected with 22RV1 cells (5×10^6 cells/mouse) in the subcutaneous right flank. Tumors were grown to a mean tumor size between 100 and 150 mm^3 prior to study enrollment. The mice were dosed with the test article and reference once-daily by oral gavage per Table 12. Tumor volume was measured throughout the study. The study was terminated on day 26 when mean tumor volume of two experimental groups reached≥1500 mm^3.

[3] = cited from earlier work
[4] = Phase solubility analysis of abiraterone-HPBCD; assay type: physicochemical; conditions: with HPBCD, in 0.01N HCl and FaSSIF
Method: Phase Solubility Analysis. Phase solubility analysis was conducted in two separate media, i.e., 0.01N HCl (pH 2.0) and FaSSIF (prepared in 50 mMol Phosphate Buffer pH 6.8). Solutions of HPBCD ranging from 0 mg/mL to 600 mg/mL were prepared in each media in scintillation vials. An excess of abiraterone was added to each vial and the vials were sonicated for 30 minutes and placed on a bench. Samples were pulled from each vial at time points of 48 hrs and 7 days. The samples were centrifuged using an ultracentrifuge (Eppendrof, Hamburg, Germany) The supernatants were further diluted using the HPLC diluent and analyzed by HPLC method mentioned above to find the concentration of abiraterone.

SMILES	treated patients achieving target PSA reductions [1]	tumor growth relative to vehicle control [2]	pKa [3]	type of solution state phase solubility profile (Higuchi and Connors) [4]
CC(=O)O[C@H]1CC[C@@]2(C)C(=CC[C@@H]3[C@@H]2CC[C@]2(C)C(c4cccnc4)=CC[C@@H]32)C1 [Abiraterone Acetate, (3β)-17-(3-pyridinyl)androsta-5, 16-dien-3-ol acetate]	up to 60%	did not result in statistically different tumor growth	–	–
C[C@]12CC[C@H](O)CC1=CC[C@@H]1[C@@H]2CC[C@]2(C)C(c3cccnc3)=CC[C@@H]12 [Abiraterone, (3β)-17-(3-pyridinyl)androsta-5,16-dien-3-ol]	–	–	4.81	A-type
